Source: US20260315446A1, “ANTIFUNGAL COMPOUNDS AND USES THEREOF” (priority 2023, published 2026)
Converted amounts (≈) assume the structure as drawn. Read-outs that look alike come from different tables or passages of the source.

What was measured:
Cryptococcus neoformans = experiment: MIC assay (Example 3); type: cell-based; conditions: Cryptococcus neoformans
Protocol: (§1) In vitro antifungal activity was assessed for all fungal strains in RPMI 1640 (Sigma-Aldrich R1383). MICs were measured using Clinical and Laboratory Standards Institute (CLSI) M38-A2 and M27-A3 standard in vitro antifungal susceptibility protocols. C. neoformans and A. fumigatus testing was performed at 37° C. MECs for A. fumigatus were recorded after 48 h of growth. C. albicans testing was performed at 30° C. with a uniform concentration of 2 μg/mL of fluconazole to sensitize the cells to calcineurin inhibition.
(§2) C. neoformans clinical isolate H99 and congenic-derived strain KN99α were used (see, Nielsen K, et al., 2003. Infect Immun 71:4831-4841). KN99α-derived frr1Δ deletion mutants with nourseothricin resistance markers as part of the Madhani deletion collection (NIH funding R01AI100272) were used. C. deneoformans strains used include JEC21 and derived C21F2 (CNB1-1) and C21F3 (frr1-3) strains (see, Odom A, et al., 1997. EMBO J 16:2576-2589; Moore T D, Edman J C. 1993. Mol Cell Biol 13:1962-1970; Fox D S, et al., 2001. Mol Microbiol 39:835-849). C. albicans strain SC5314 is the wild-type strain from which mutants YAG171 (rbp1/rbp1) and YAG237 (CNB1-1/CNB1) were derived (see, Cruz M C, et al., 2001. Antimicrob Agents Chemother 45:3162-3170). A. fumigatus strain akuB^Ku80 and a derived FKBP12 mutant fkbp12A were used during antifungal screening (see, Falloon K, et al., 2015. PLoS One 10:e0137869).

[1] = test system: IL-2 expression in primary mouse CD4+ T cells (mammalian calcineurin); experiment: In vitro immunosuppressive activity, IL-2 expression (Example 3); type: cell-based; conditions: 72 h
Protocol: Modifications at the C-22 position reduce inhibition of mammalian calcineurin signaling Mammalian calcineurin inhibition was then assessed and found to be reduced for these FK520 analogs. The inhibition of mammalian calcineurin was assessed by measuring the reduction of IL-2 expression from primary mouse CD4^+ T cells cultured in the presence of FK506, FK520, or an analog. Calcineurin activity is required for T cell activation and cytokine production, and IL-2 production serves as an effective measure of mammalian calcineurin activity. After culturing mouse CD4′ T cells for 72 h, IL-2 expression was analyzed by flow cytometry to evaluate the immunosuppressive activity of the analogs. […] However, compound concentrations that permit high IL-2 expression are less likely to result in cell death.
Spleen and lymph nodes from C57BL/6 mice were collected and homogenized through a 40-μm filter. Pan-CD4^+ T cells were enriched using the MagniSort Mouse CD4 T Cell Enrichment Kit (Invitrogen). Thereafter, CD4^+CD25^−CD62L^hiCD44^lo naïve CD4^+ T cells were FACS-sorted using a MoFlo Astrios cell sorter (Beckman Coulter). Naïve CD4^+ T cells were cultured in Iscove's Modified Dulbecco's Medium supplemented with 10% fetal bovine serum (FBS), penicillin (10 U/mL), streptomycin (10 μg/mL), glutamine (2 mM), gentamicin (50 μg/mL), and β-mercaptoethanol (55 μM). Cells were cultured for 72 h on anti-hamster IgG-coated plates with hamster anti-CD3s antibodies, hamster anti-CD28 antibodies, neutralizing anti-IL-4 antibodies, recombinant IL-12 (10 ng/mL), and recombinant IL-2 (50 U/mL). During this culture, cells were incubated with serially diluted drugs suspended in DMSO.

[2] = Solubility in microdilution broth assays; type: physicochemical
Protocol: FIG. 12: Low-solubility compounds in MIC assay. Representative image of MIC assay read by plate reader with growth indicated on a range from 0.04 to 0.1 OD, black to green coloration. Starting concentration 50 μg/mL for all drugs. (A) H99 cultured in wells, and (B) wells contain RPMI media and no fungal cells with green coloration indicative of false positive growth caused by drug insolubility.
To assess antifungal activity, the panel of compounds was tested for fungal growth inhibition using minimum inhibitory concentration (MIC) assays against C. neoformans and C. albicans and minimum effective concentration (MEC) assays against A. fumigatus. […] MEC values against A. fumigatus ranged from 0.6 to 2.5 μg/mL for 10 of the analogs tested. […] Overall, a majority of these analogs maintain relatively potent antifungal activity across species and represent an active library for further investigation.

[3] = test system: C. neoformans growth versus IL-2 in murine T cells; experiment: Therapeutic index score (immunosuppressive fold change to antifungal fold change relative to FK506); design: species or system Cryptococcus neoformans; mouse; conditions: Example 3; C. neoformans H99, FK506 = 1.0
Text: To assess the therapeutic potential for these compounds, it was important to develop an approach to score and rank them based on antifungal and immunosuppressive activities. The therapeutic index score (TIscore) is a ratio of the immunosuppressive fold change to the antifungal fold change, with all values relative to the baseline FK506 activity (FIG. 6B). A TIscore of >1.0 indicates an increase in fungal specificity because the fold change of the immunosuppressive reduction is greater than the antifungal activity reduction. As an example, JH-FK-05 is 20-fold reduced for antifungal activity but about 180-fold reduced for immunosuppression. Therefore, the TIscore of JH-FK-05 is 9.1 (TIscore=182/20). The top two analogs were JH-FK-02 (TIscore=9.7) and JH-FK-05 (TIscore=9.1). Due to the similar TIscore, JH-FK-05 was prioritized to advance to animal trials on the merit of more pronounced antifungal activity compared to JH-FK-02.
Based on the in vitro fungal and mammalian calcineurin inhibition data, the panel of FK520 analogs was assessed and ranked. Therapeutic index (TI) scores were used to quantify the effects of structural modification on the compounds (Table 8). Therapeutic index scores were calculated for each analog as the ratio of relative change in immunosuppressive and antifungal activities compared to FK506 as previously utilized (see, I-Toy M J, et at. 2022. mBio 13:e0104922). This ratio of therapeutic benefit and host toxicity, or fungal and mammalian calcineurin inhibition, allowed us to quantify and rank these analogs. […] This is the greatest TI found within the library and allowed us to identify JH-FK-08 as a lead candidate for an in vivo study. Tolerability of JH-FK-08 was assessed by monitoring animal responses to drug dosing across 14 days, including changes in weight, fur condition, and behavior. A maximum dose of 40 mg/kg was tested in once a day dosing, and due to solubility limitations, the tolerability of JH-FK-08 at 60 and 80 mg/kg total daily doses was assessed by dosing two equal doses per day (FIG. 14). […] It should be noted that analogs JH-FK-12 and JH-FK-23 are also promising candidates with respective Tis of 24.7 and 24.5.

Candida albicans = experiment: MIC assay (Example 3); type: cell-based; conditions: Candida albicans, SC5314; MIC80, 30° C. with 2 μg/mL fluconazole; read-out: MIC against Candida albicans (SC5314)
Protocol: as §1, §2

Aspergillus fumigatus = experiment: MEC assay (Example 3); conditions: strain akuB^Ku80
cryptococcosis = conditions: cited from earlier work
[4] = MIC90, 37° C., read-out: MIC against Cryptococcus neoformans (H99)

Row | Structure (SMILES) | MIC (Cryptococcus neoformans; Table 8, read-out: H99 MIC90) | IC50 [1] | solubility during microdilution broth assays [2] | Therapeutic index [3] | MIC (Cryptococcus neoformans; [4]) | MIC (Candida albicans) | MEC against Aspergillus fumigatus (akuB^Ku80) (Aspergillus fumigatus) | interaction with fluconazole in pulmonary cryptococcosis model (cryptococcosis; in vivo combination therapy with fluconazole) | fungal burden in animal model of cryptococcosis (cryptococcosis; in vivo)
1 | CC[C@@H]1/C=C(\C)C[C@H](C)C[C@H](OC)[C@H]2O[C@@](O)(C(=O)C(=O)N3CCCC[C@H]3C(=O)O[C@H](/C(C)=C/C3CC[C@@H](O)[C@H](OC)C3)[C@H](C)[C@@H](O)C/C1=N/NS(=O)(=O)c1ccc(C)cc1)[C@H](C)C[C@@H]2OC (stereo partly shown) [JH-FK-13] | > 50 µg/mL | > 0.2 µM | exhibited solubility issues | – | – | – | – | – | –
2 | CC[C@@H]1/C=C(\C)C[C@H](C)C[C@H](OC)[C@H]2O[C@@](O)(C(=O)C(=O)N3CCCC[C@H]3C(=O)O[C@H](/C(C)=C/C3CC[C@@H](O)[C@H](OC)C3)[C@H](C)[C@@H](O)C/C1=N/NC(=O)c1ccc(F)cc1)[C@H](C)C[C@@H]2OC (stereo partly shown) [JH-FK-17] | 0.4 µg/mL (≈ 0.431 µM) | 0.0094 µM | exhibited solubility issues | 13.1 | 0.4 µg/mL (≈ 0.431 µM) | 0.4 µg/mL (≈ 0.431 µM) | 1.3 µg/mL | – | –
3 | CC[C@@H]1/C=C(\C)C[C@H](C)C[C@H](OC)[C@H]2O[C@@](O)(C(=O)C(=O)N3CCCC[C@H]3C(=O)O[C@H](/C(C)=C/C3CC[C@@H](O)[C@H](OC)C3)[C@H](C)[C@@H](O)C/C1=N/NC(=O)c1ccc3ccccc3c1)[C@H](C)C[C@@H]2OC (stereo partly shown) [JH-FK-15] | 3.1 µg/mL (≈ 3.23 µM) | 0.0174 µM | exhibited solubility issues | 3.1 | 3.1 µg/mL (≈ 3.23 µM) | 0.4 µg/mL (≈ 0.417 µM) | 0.3 µg/mL | – | –
4 | C=CC[C@@H]1/C=C(\C)C[C@H](C)C[C@H](OC)[C@H]2O[C@@](O)(C(=O)C(=O)N3CCCC[C@H]3C(=O)O[C@H](/C(C)=C/[C@@H]3CC[C@@H](O)[C@H](OC)C3)[C@H](C)[C@@H](O)CC1=NNC(C)=O)[C@H](C)C[C@@H]2OC [JH-FK-01] | – | – | – | – | – | – | – | benefits from this synergistic interaction | significantly reduced fungal burden
